Results as given in patent publication US8097733B2, “Pyrazole derivatives as 5-LO-inhibitors” (Pfizer Inc., priority 2007, dated 2012).

Tests used:
[1] = target: T1, recombinant human 5-LOX (Homo sapiens, UniProt P09917); assay: Fluorescence Intensity 5-LOX Enzyme Assay; assay type: biochemical; conditions: crude lysate of recombinant human 5-LOX; highest inhibitor concentration tested typically 25 μM
T1 sequence (P09917 1-674): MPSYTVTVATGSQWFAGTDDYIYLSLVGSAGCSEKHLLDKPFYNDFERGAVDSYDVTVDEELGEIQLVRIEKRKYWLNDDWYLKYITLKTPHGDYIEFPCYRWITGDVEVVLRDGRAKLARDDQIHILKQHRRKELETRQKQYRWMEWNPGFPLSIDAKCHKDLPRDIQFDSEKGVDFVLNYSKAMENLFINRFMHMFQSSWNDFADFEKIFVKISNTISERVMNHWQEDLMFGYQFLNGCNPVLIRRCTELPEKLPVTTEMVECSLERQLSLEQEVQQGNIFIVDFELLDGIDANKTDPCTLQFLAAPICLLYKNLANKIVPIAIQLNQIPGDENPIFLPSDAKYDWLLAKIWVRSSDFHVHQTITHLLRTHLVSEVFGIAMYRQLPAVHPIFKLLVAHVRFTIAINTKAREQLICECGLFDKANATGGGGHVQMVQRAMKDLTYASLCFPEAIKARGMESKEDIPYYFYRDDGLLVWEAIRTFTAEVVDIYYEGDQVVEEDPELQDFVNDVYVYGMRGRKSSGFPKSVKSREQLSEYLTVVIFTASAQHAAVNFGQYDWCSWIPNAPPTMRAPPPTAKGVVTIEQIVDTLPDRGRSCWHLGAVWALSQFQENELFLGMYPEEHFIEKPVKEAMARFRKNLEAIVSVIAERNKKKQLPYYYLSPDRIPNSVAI
Excerpt: Bio Data Assays for Allergic and Non Allergic Airways Diseases Fluorescence Intensity 5-LOX Enzyme Assay
The enzyme assay is based on the oxidation of the non-fluorescent compound 2′7′-dichlorodihydrofluorescein diacetate (H2DCFDA) to the fluorescent 2′,7′-dichlorofluorescein by 5-LOX in an arachidonic acid-dependent reaction. Ester cleavage of the acetate groups of the substrate H2DCFDA must occur prior to oxidation. This is achieved through use of a crude cell lysate preparation of recombinant human 5-LOX. The enzyme assay ([…]) contained 50 mM Tris (pH 7.5), 2 mM CaCl2, 2 mM EDTA, 3 μM arachidonic acid (Nu-Chek Prep; #S-1133), 10 μM ATP, 10 μM H2DCFDA (Invitrogen; #D399), inhibitor (varying concentration) and recombinant human 5-LOX enzyme (1.25 μL crude lysate per well).
Inhibitors (dissolved in DMSO) were plated into a 384-well assay plate (Corning #3654) at 1 μL followed by a 20 μL addition of a solution containing 5-LO enzyme and H2DCFDA. Enzyme and H2DCFDA were pre-incubated for 5 min to allow time for acetate group cleavage of the dye prior to addition to the assay plate. After a 10 min pre-incubation of inhibitor and enzyme/dye mix, the assay was initiated by the addition of a substrate solution containing arachidonic acid and ATP. The enzymatic reaction was run for 20 min at room temperature and terminated by the addition of 40 μL of acetonitrile. Assay plates were read in a plate reader using standard wavelengths for fluorescein. IC50s of inhibitors were calculated using a 4-parameter fit using 7 inhibitor concentrations in duplicate with 3-fold serial dilutions. Controls on each plate included no inhibitor (zero percent effect) and 25 μM C J-13610 (one hundred percent effect). The highest inhibitor concentration tested was typically 25 μM. The final DMSO concentration in the assay was 2.5%.

[2] = tested on: human whole blood (leukotriene and prostaglandin levels); assay: Eicosanoid production from human whole blood; assay type: cell-based; conditions: human whole blood stimulated with calcium ionophore A23187 and arachidonic acid; ELISA
Experimental: Human whole blood is collected in 10 ml heparin tubes (Vacutainer, Becton Dickenson). Collected blood is pooled and 80 μL is dispensed into each well of 384 well polypropylene plates. A PlateMate is used to add 2 μL of compound solution in DMSO to the 80 μL of blood in the polypropylene plates. The plate, with blood and compound added, is incubated at room temperature for 10 minutes. 2 μL of a calcimycin (800 ng/ml) (A23187 C-7522, Sigma) and arachidonic acid (30 μM) (NU-Chek PREP, INC. S-1133) solution in 60% ethanol is then added to the blood using a Micromultidrop. The plates are then incubated at 37° C. in a shallow water bath for 15 minutes. Plates are then spun at 800 g for 10 minutes at 4° C. Supernatant is removed and assayed by Elisa (Caymen Chemical).
Eicosanoid Production from Human Whole Blood:
Human whole blood was collected from healthy or asthmatic human donors in 10 ml heparinized tubes (Vacutainer tubes; Becton Dickenson, Franklin Lakes, N.J.). Collected blood was pooled and 80 μL was dispensed into each well of 384 well polypropylene plates using a Multi-prop™ 384-well dispenser (Titertek, Huntsville, Ala.). Varying concentrations of compounds were dissolved in DMSO then 2 μL/well was added to the blood using a PlateMate Plus™ automated pipetting station (Matrix Technologies, Hudson, N.H.). The compounds were preincubated with the blood at room temperature for 10 minutes followed by stimulation with 40 μM calcium ionophore (A23187, Sigma Chemical Co, St. Louis, Mo., Cat. # C-7522) and 30 μM arachidonic acid (S-1133, NU-Chek PREP, Inc., Elysian, MN, Cat. # S-1133) dissolved in 60% ethanol. After 15 min incubation at 37° C. in a shallow water bath, the blood was centrifuged at 8009 for 10 minutes at 4° C., the supernatants collected, and leukotriene and prostaglandin levels measured by ELISA according to the manufacturer's directions (Cayman Chemical Company, Ann Arbor, Mich.). The assay was performed at a final concentration of 2.5% DMSO.

IC50 [1] [nM] | IC50 [2] [nM] | Structure (SMILES)
1590 | 3350 | Cn1nccc1C(=O)c1ccc(Sc2cccc(C3(C(N)=O)CCOCC3)c2)cn1 [Example 69, 4-[3-({6-[(1-methyl-1H-pyrazol-5-yl)carbonyl]pyridin-3-yl}thio)phenyl]tetrahydro-2H-pyran-4-carboxamide]
3220 | 1170 | Cn1nccc1-c1ccc(Sc2cccc(C3(C(N)=O)CCOCC3)c2)c(C#N)c1 [Example 88, 4-(3-{[2-cyano-4-(1-methyl-1H-pyrazol-5-yl)phenyl]thio}phenyl)tetrahydro-2H-pyran-4-carboxamide]
16.8 | 232 | C[C@H]1C[C@@](C(N)=O)(c2cc(F)cc(Sc3ccc(-c4ccnn4C)c(F)c3)c2)CCO1 [Example 32, (2S,4R)-4-(3-fluoro-5-(3-fluoro-4-(1-methyl-1H-pyrazol-5-yl)phenylthio)phenyl)-2-methyl-tetrahydro-2H-pyran-4-carboxamide]
430 | 1980 | COc1cc(Sc2cccc(C3(C(N)=O)CCOCC3)c2)ccc1C(=O)c1ccnn1C [Example 71, 4-[3-({3-methoxy-4-[(1-methyl-1H-pyrazol-5-yl)carbonyl]phenyl}thio)phenyl]tetrahydro-2H-pyran-4-carboxamide]
102 | 179 | NC(=O)C1(c2cccc(Sc3ccc(-c4ccnn4C4CCCC4)cc3)c2)CCOCC1 [Example 3, 4-(3-{[4-(1-cyclopentyl-1H-pyrazol-5-yl)phenyl]thio}phenyl)tetrahydro-2H-pyran-4-carboxamide]
2710 | 999 | Cn1nccc1-c1ccc(Sc2cccc(C3(C#N)CCOCC3)c2)cc1 [Example 49, 4-(3-{[4-(1-methyl-1H-pyrazol-5-yl)phenyl]thio}phenyl)tetrahydro-2H-pyran-4-carbonitrile]
188 | 466 | Cn1nccc1C(=O)c1ccc(Sc2cccc(C3(C(N)=O)CCOCC3)c2)cc1Cl [Example 36]
327 | 2160 | Cn1nccc1Oc1ncc(Sc2cccc(C3(C(N)=O)CCOCC3)c2F)cc1Cl [Example 61, 4-[3-({5-chloro-6-[(1-methyl-1H-pyrazol-5-yl)oxy]pyridin-3-yl}thio)-2-fluorophenyl]tetrahydro-2H-pyran-4-carboxamide]
13.4 | 672 | C[C@H]1C[C@@](C(N)=O)(c2cccc(Sc3ccc(-c4c(Br)cnn4C)cc3)c2F)CCO1 [Example 73, (2S,4R)-4-(3-{[4-(4-bromo-1-methyl-1H-pyrazol-5-yl)phenyl]thio}-2-fluorophenyl)-2-methyltetrahydro-2H-pyran-4-carboxamide]
14 | 200 | C[C@H]1C[C@@](C(N)=O)(c2cccc(Sc3ccc(-c4ccnn4C)c(F)c3)c2)CCO1 [Example 30, (2S,4R)-4-(3-(3-fluoro-4-(1-methyl-1H-pyrazol-5-yl)phenylthio)phenyl)-2-methyl-tetrahydro-2H-pyran-4-carboxamide]
32.9 | 83.6 | C[C@H]1C[C@@](C#N)(c2cccc(Sc3ccc(-c4ccnn4C)cc3F)c2F)CCO1 [Example 25]
38.6 | 78.5 | NC(=O)C1(c2cccc(Sc3ccc(-c4ccnn4CC4CCCC4)cc3)c2)CCOCC1 [Example 7, 4-[3-({4-[1-(cyclopentylmethyl)-1H-pyrazol-5-yl]phenyl}thio)phenyl]tetrahydro-2H-pyran-4-carboxamide]
14 | 253 | CCn1nccc1-c1ccc(Sc2cccc(C3(C(N)=O)CCOCC3)c2)cc1 [Example 8, 4-(3-{[4-(1-ethyl-1H-pyrazol-5-yl)phenyl]thio}phenyl)tetrahydro-2H-pyran-4-carboxamide]
256 | 1260 | Cn1nccc1C(=O)c1cc(F)c(Sc2cccc(C3(C(N)=O)CCOCC3)c2)cc1F [Example 63, 4-[3-({2,5-difluoro-4-[(1-methyl-1H-pyrazol-5-yl)carbonyl]phenyl}thio)phenyl]tetrahydro-2H-pyran-4-carboxamide]
12.5 | 260 | NC(=O)C1(c2cccc(Sc3ccc(-c4ccnn4C4CCCCCC4)cc3)c2)CCOCC1 [Example 4, 4-(3-{[4-(1-cycloheptyl-1H-pyrazol-5-yl)phenyl]thio}phenyl)tetrahydro-2H-pyran-4-carboxamide]
816 | 890 | CCc1cn[nH]c1-c1ccc(Sc2cccc(C3(C(N)=O)CCOCC3)c2)cc1 [Example 59, 4-(3-{[4-(4-ethyl-1H-pyrazol-5-yl)phenyl]thio}phenyl)tetrahydro-2H-pyran-4-carboxamide]
470 | 8270 | CNC(=O)C1(c2cccc(Sc3ccc(C(=O)c4ccnn4C)c(OC)c3)c2)CCOCC1 [Example 64, 4-[3-({3-methoxy-4-[(1-methyl-1H-pyrazol-5-yl)carbonyl]phenyl}thio)phenyl]-N-methyltetrahydro-2H-pyran-4-carboxamide]
84 | 33 | Cn1nccc1-c1ccc(Sc2cccc(C3(C#N)CCOCC3)c2F)c(F)c1 [Example 45, 4-(2-fluoro-3-(2-fluoro-4-(1-methyl-1H-pyrazol-5-yl)phenylthio)phenyl)tetrahydro-2H-pyran-4-carbonitrile]
737 | 851 | Cn1nccc1C(=O)c1ncc(Sc2cccc(C3(C(N)=O)CCOCC3)c2)cc1Cl [Example 42, 4-(3-(5-chloro-6-(1-methyl-1H-pyrazole-5-carbonyl)pyridin-3-ylthio)phenyl)-tetrahydro-2H-pyran-4-carboxamide]
369 | 596 | CNC(=O)C1(c2cc(F)cc(Sc3ccc(-c4ccnn4C)cc3)c2)CCOCC1 [Example 18, 4-(3-fluoro-5-{[4-(1-methyl-1H-pyrazol-5-yl)phenyl]thio}-phenyl)-N-methyltetrahydro-2H-pyran-4-carboxamide]
15.5 | 337 | C[C@H]1C[C@@](C(N)=O)(c2cccc(Sc3ccc(-c4ccnn4C)c(F)c3)c2F)CCO1 [Example 31, (2S,4R)-4-(2-fluoro-3-(3-fluoro-4-(1-methyl-1H-pyrazol-5-yl)phenylthio)phenyl)-2-methyl-tetrahydro-2H-pyran-4-carboxamide]
454 | 267 | Cn1nccc1-c1ccc(Sc2cccc(C3(C(N)=O)CCOCC3)c2)c(F)c1 [Example 12, 4-(3-{[2-Fluoro-4-(1-methyl-1H-pyrazol-5-yl)phenyl]thio}phenyl)tetrahydro-2H-pyran-4-carboxamide]
